Source: US20250325534A1, “MICROBIOCIDAL TETRAHYDROISOQUINOLINE DERIVATIVES” (SYNGENTA CROP PROTECTION AG, priority 2021, published 2025)

Columns and labels:
Type in all cases: cell-based
Monographella nivalis = Monographella nivalis (Microdochium nivale) / liquid culture (foot rot cereals); conditions: 96 h, photometrically 4-5 days after application, read-out: control of Monographella nivalis
Procedure: (§1) Example B10: Monographella nivalis (Microdochium nivale)/Liquid Culture (Foot Rot Cereals) Conidia of the fungus from cryogenic storage are directly mixed into a nutrient broth (potato dextrose broth). After placing a DMSO solution of test compound into a microtiter plate (96-well format), the nutrient broth containing the fungal spores is added. The test plates are incubated at 24° C. and the inhibition of growth is determined photometrically 4-5 days after application.

[1] = system: Mycosphaerella graminicola; assay: Mycosphaerella graminicola (Septoria tritici) / liquid culture (Septoria blotch); conditions: Zymoseptoria tritici, 96 h, photometrically 4-5 days after application, read-out: control of Mycosphaerella graminicola
Procedure: as §1, with “B19: Mycosphaerella graminicola (Septoria tritici)/Liquid” for “B10: Monographella nivalis (Microdochium nivale)/Liquid”, “(Septoria Blotch)” for “(Foot Rot Cereals)”

Mycosphaerella arachidis = Mycosphaerella arachidis (Cercospora arachidicola) / liquid culture (early leaf spot); conditions: 96 h, photometrically 4-5 days after application, read-out: control of Mycosphaerella arachidis
Procedure: as §1, with “B11: Mycosphaerella arachidis (Cercospora arachidicola)/Liquid” for “B10: Monographella nivalis (Microdochium nivale)/Liquid”, “(Early Leaf Spot)” for “(Foot Rot Cereals)”

SMILES	inhibition of growth at 20 ppm (Monographella nivalis)	inhibition of growth at 20 ppm [1]	inhibition of growth at 20 ppm (Mycosphaerella arachidis)
Cn1cc(C2CN(C(=O)c3ncc(-c4ccccc4)s3)Cc3ccccc32)cn1 (stereo not shown) [Compound P-156, [4-(1-methylpyrazol-4-yl)-3,4-dihydro-1H-isoquinolin-2-yl]-(5-phenylthiazol-2-yl)methanone]	≥ 80%	≥ 80%	–
Cn1cc(C2CN(C(=O)c3cc(-c4ccc(F)cc4)no3)Cc3ccccc32)cn1 (stereo not shown) [Compound P-160, [3-(4-fluorophenyl)isoxazol-5-yl]-[4-(1-methylpyrazol-4-yl)-3,4-dihydro-1H-isoquinolin-2-yl]methanone]	≥ 80%	≥ 80%	–
Cn1cc(C2CN(C(=O)c3cc(C4CCCCC4)on3)Cc3ccccc32)cn1 (stereo not shown) [Compound P-177, (5-cyclohexylisoxazol-3-yl)-[4-(1-methylpyrazol-4-yl)-3,4-dihydro-1H-isoquinolin-2-yl]methanone]	≥ 80%	≥ 80%	–
CC1c2ccc(OCC(F)F)cc2C(C)(c2cnn(C)c2)CN1C(=O)c1cc(-c2ccc(F)cc2F)on1 (stereo not shown) [Compound P-33, [6-(2,2-difluoroethoxy)-1,4-dimethyl-4-(1-methylpyrazol-4-yl)-1,3-dihydroisoquinolin-2-yl]-[5-(2,4-difluorophenyl)isoxazol-3-yl]methanone]	≥ 80%	≥ 80%	≥ 80%
CCC1(c2cnn(C)c2)CN(C(=O)c2cc(-c3ccc(F)cc3F)on2)C(C)c2ccccc21 (stereo not shown) [Compound P-222, [5-(2,4-difluorophenyl)isoxazol-3-yl]-[4-ethyl-1-methyl-4-(1-methylpyrazol-4-yl)-1,3-dihydroisoquinolin-2-yl]methanone]	≥ 80%	≥ 80%	≥ 80%
Cc1cccc2c1CN(C(=O)c1cc(-c3ccc(F)cc3F)on1)CC2c1c(C)nn(C)c1C (stereo not shown) [Compound P-114, [5-(2,4-difluorophenyl)isoxazol-3-yl]-[8-methyl-4-(1,3,5-trimethylpyrazol-4-yl)-3,4-dihydro-1H-isoquinolin-2-yl]methanone]	–	≥ 80%	≥ 80%
COc1ccc2c(c1)C(C)(c1cnn(C)c1)CN(C(=O)c1cc(-c3ccccc3)on1)C2C (stereo not shown) [Compound P-39, [6-methoxy-1,4-dimethyl-4-(1-methylpyrazol-4-yl)-1,3-dihydroisoquinolin-2-yl]-(5-phenylisoxazol-3-yl)methanone]	≥ 80%	≥ 80%	≥ 80%
CC(=O)C1c2ccccc2C(c2cnn(C)c2)CN1C(=O)c1cc(-c2ccc(F)cc2F)on1 (stereo not shown) [Compound P-17, 1-[2-[5-(2,4-difluorophenyl)isoxazole-3-carbonyl]-4-(1-methylpyrazol-4-yl)-3,4-dihydro-1H-isoquinolin-1-yl]ethanone]	≥ 80%	≥ 80%	–
Cn1cc(C2CN(C(=O)c3cc(C4CCCC4)on3)Cc3ccccc32)cn1 (stereo not shown) [Compound P-176, (5-cyclopentylisoxazol-3-yl)-[4-(1-methylpyrazol-4-yl)-3,4-dihydro-1H-isoquinolin-2-yl]methanone]	–	≥ 80%	≥ 80%
CC1c2ccc(OCC(F)F)cc2C(C)(c2cnn(C)c2)CN1C(=O)c1cc(-c2ccccc2)on1 (stereo not shown) [Compound P-26, [6-(2,2-difluoroethoxy)-1,4-dimethyl-4-(1-methylpyrazol-4-yl)-1,3-dihydroisoquinolin-2-yl]-(5-phenylisoxazol-3-yl)methanone]	–	≥ 80%	≥ 80%
Cc1nn(C)c(C)c1C1CN(C(=O)c2cc(-c3ccc(F)cc3F)on2)Cc2cccc(F)c21 (stereo not shown) [Compound P-123, [5-(2,4-difluorophenyl)isoxazol-3-yl]-[5-fluoro-4-(1,3,5-trimethylpyrazol-4-yl)-3,4-dihydro-1H-isoquinolin-2-yl]methanone]	–	≥ 80%	≥ 80%
CC1c2ccc(OC(F)F)cc2C(C)(c2cnn(C)c2)CN1C(=O)c1cc(-c2ccc(F)cc2F)on1 (stereo not shown) [Compound P-30, [6-(difluoromethoxy)-1,4-dimethyl-4-(1-methylpyrazol-4-yl)-1,3-dihydroisoquinolin-2-yl]-[5-(2,4-difluorophenyl)isoxazol-3-yl]methanone]	≥ 80%	≥ 80%	≥ 80%
Cc1c(C2CN(C(=O)c3cc(C4CCCCC4)on3)Cc3ccccc32)cnn1C (stereo not shown) [Compound P-236, (5-cyclohexylisoxazol-3-yl)-[4-(1,5-dimethylpyrazol-4-yl)-3,4-dihydro-1H-isoquinolin-2-yl]methanone]	≥ 80%	≥ 80%	≥ 80%
Cc1nn(C)c(C)c1C1CN(C(=O)c2cc(-c3ccc(Cl)cc3F)on2)Cc2ccccc21 (stereo not shown) [Compound P-125, [5-(4-chloro-2-fluoro-phenyl)isoxazol-3-yl]-[4-(1,3,5-trimethylpyrazol-4-yl)-3,4-dihydro-1H-isoquinolin-2-yl]methanone]	≥ 80%	≥ 80%	≥ 80%
CC(C)[C@]1(c2cnn(C)c2)CN(C(=O)c2cc(-c3ccc(F)cc3F)on2)[C@@H](C)c2ccccc21 [Compound P-241, [5-(2,4-difluorophenyl)isoxazol-3-yl]-[(1S,4S)-4-isopropyl-1-methyl-4-(1-methylpyrazol-4-yl)-1,3-dihydroisoquinolin-2-yl]methanone]	–	≥ 80%	≥ 80%
Cn1cc(C2CN(C(=O)c3cc(-c4cccn4C)on3)Cc3ccccc32)cn1 (stereo not shown) [Compound P-179, [4-(1-methylpyrazol-4-yl)-3,4-dihydro-1H-isoquinolin-2-yl]-[5-(1-methylpyrrol-2-yl)isoxazol-3-yl]methanone]	≥ 80%	≥ 80%	≥ 80%
Cn1cc(C2CN(C(=O)c3cc(-c4ccccc4Cl)on3)Cc3ccccc32)cn1 (stereo not shown) [Compound P-197, [5-(2-chlorophenyl)isoxazol-3-yl]-[4-(1-methylpyrazol-4-yl)-3,4-dihydro-1H-isoquinolin-2-yl]methanone]	≥ 80%	≥ 80%	–
CC(C)[C@@]1(c2cnn(C)c2)CN(C(=O)c2cc(-c3ccc(F)cc3F)on2)[C@@H](C)c2ccccc21 [Compound P-239, [5-(2,4-difluorophenyl)isoxazol-3-yl]-[(1S,4R)-4-isopropyl-1-methyl-4-(1-methylpyrazol-4-yl)-1,3-dihydroisoquinolin-2-yl]methanone]	–	≥ 80%	≥ 80%
CC1c2ccccc2C(c2cnn(C)c2)(C(C)C)CN1C(=O)c1cc(-c2ccc(F)cc2F)on1 (stereo not shown) [Compound P-220, [5-(2,4-difluorophenyl)isoxazol-3-yl]-[4-isopropyl-1-methyl-4-(1-methylpyrazol-4-yl)-1,3-dihydroisoquinolin-2-yl]methanone]	–	≥ 80%	≥ 80%
CC1c2ccc(O)cc2C(C)(c2cnn(C)c2)CN1C(=O)c1cc(-c2ccc(F)cc2F)on1 (stereo not shown) [Compound P-35, [5-(2,4-difluorophenyl)isoxazol-3-yl]-[6-hydroxy-1,4-dimethyl-4-(1-methylpyrazol-4-yl)-1,3-dihydroisoquinolin-2-yl]methanone]	–	≥ 80%	≥ 80%
Cn1cc(C2CN(C(=O)c3cc(-c4ccc(F)c(F)c4)on3)Cc3ccccc32)cn1 (stereo not shown) [Compound P-172, [5-(3,4-difluorophenyl)isoxazol-3-yl]-[4-(1-methylpyrazol-4-yl)-3,4-dihydro-1H-isoquinolin-2-yl]methanone]	–	≥ 80%	≥ 80%
Cn1cc(C2CN(C(=O)c3cnc(-c4ccccc4)s3)Cc3ccccc32)cn1 (stereo not shown) [Compound P-164, [4-(1-methylpyrazol-4-yl)-3,4-dihydro-1H-isoquinolin-2-yl]-(2-phenylthiazol-5-yl)methanone]	≥ 80%	≥ 80%	–
CCC1c2ccccc2C(c2cnn(C)c2)CN1C(=O)c1cc(-c2ccc(F)cc2F)on1 (stereo not shown) [Compound P-36, [5-(2,4-difluorophenyl)isoxazol-3-yl]-[1-ethyl-4-(1-methylpyrazol-4-yl)-3,4-dihydro-1H-isoquinolin-2-yl]methanone]	≥ 80%	≥ 80%	–
Cc1ccc2c(c1)C(c1cnn(C)c1)CN(C(=O)c1cc(-c3ccccc3)on1)C2 (stereo not shown) [Compound P-137, [6-methyl-4-(1-methylpyrazol-4-yl)-3,4-dihydro-1H-isoquinolin-2-yl]-(5-phenylisoxazol-3-yl)methanone]	–	≥ 80%	≥ 80%
